Laboratory results: article PMC3929664, “A Panel of Diverse Assays to Interrogate the Interaction between Glucokinase and Glucokinase Regulatory Protein, Two Vital Proteins in Human Disease” (PLoS ONE, 2014)
Structures can show the parent of a compound that is named as a salt.

Columns and labels:
[1] = system: europium-conjugated rabbit anti-mouse IgG antibody / mouse anti-FLAG XL 665 antibody; assay: IgG HTRF counter-assay; settings: no GCK or GKRP, mean ± SD
Protocol: (§1) S6P, F1P, and glucose were dissolved in water; GKAs were dissolved in DMSO.
(TIF) Click here for additional data file.

[2] = biological target: T1, GCK enzymatic reaction inhibited by GKRP (recombinant human GCK and GKRP) (Homo sapiens, UniProt P35557+Q14397); assay: Diaphorase-coupled kinetic assay (G6PDH/diaphorase dual-coupled); type: biochemical; settings: 10 nM GCK, 10 nM GKRP; for LOPAC1280 screen outcome: 1.5 µM S6P
T1 construct: made in house
T1 sequence (P35557 1-465): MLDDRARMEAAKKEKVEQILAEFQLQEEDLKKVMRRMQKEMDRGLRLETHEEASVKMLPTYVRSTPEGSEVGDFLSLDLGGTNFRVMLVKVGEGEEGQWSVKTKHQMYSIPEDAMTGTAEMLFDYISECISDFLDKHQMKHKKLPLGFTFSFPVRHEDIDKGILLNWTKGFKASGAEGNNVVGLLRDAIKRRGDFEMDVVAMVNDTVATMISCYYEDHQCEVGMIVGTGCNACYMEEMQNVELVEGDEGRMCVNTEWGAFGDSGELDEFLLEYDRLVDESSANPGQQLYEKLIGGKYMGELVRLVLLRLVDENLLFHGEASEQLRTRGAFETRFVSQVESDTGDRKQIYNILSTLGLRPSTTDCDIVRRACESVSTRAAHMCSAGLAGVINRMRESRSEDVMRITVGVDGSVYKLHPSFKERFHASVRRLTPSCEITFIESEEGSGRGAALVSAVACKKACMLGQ
T1 sequence (Q14397 1-625): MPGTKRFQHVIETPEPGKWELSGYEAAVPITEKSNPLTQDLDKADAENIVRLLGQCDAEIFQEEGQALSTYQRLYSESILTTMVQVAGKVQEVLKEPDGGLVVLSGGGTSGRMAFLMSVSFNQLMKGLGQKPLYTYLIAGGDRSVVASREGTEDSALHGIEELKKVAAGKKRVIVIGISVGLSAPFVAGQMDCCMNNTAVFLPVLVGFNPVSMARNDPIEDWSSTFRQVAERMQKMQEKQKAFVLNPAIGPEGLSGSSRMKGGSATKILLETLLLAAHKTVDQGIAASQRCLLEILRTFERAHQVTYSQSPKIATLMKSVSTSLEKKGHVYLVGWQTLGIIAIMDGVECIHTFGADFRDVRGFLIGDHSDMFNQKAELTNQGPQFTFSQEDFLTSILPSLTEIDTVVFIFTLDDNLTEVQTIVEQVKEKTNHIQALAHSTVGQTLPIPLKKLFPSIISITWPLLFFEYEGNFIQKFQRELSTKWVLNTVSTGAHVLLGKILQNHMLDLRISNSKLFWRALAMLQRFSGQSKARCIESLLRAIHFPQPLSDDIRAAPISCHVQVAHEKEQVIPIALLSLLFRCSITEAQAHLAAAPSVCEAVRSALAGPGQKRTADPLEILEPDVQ
Protocol: The glucose 6-phosphate dehydrogenase (G6PDH)-coupled kinetic assay described previously was adapted for high-throughput screening by dispensing 2 µl diaphorase-coupled substrate assay buffer (pH 7.1) to give final reaction conditions of 25 mM HEPES, 25 mM KCl, 2 mM MgCl2, 1.4 mM 2-mercaptoethanol, 0.025% BSA, 0.01% Tween-20, 0.15 mM NADP^+, 5 mM glucose, 0.4 mM ATP, 4 U/ml G6PDH, and 0.1 mM resazurin (all Sigma-Aldrich, except ATP which was from Promega) into black 1536-well medium binding plates (Greiner Bio-One) using a BioRAPTR. The reaction was then initiated by addition of 2 µl of diaphorase-coupled enzyme assay buffer containing indicated concentrations of GST-GCK, FLAG-GKRP, and diaphorase (Sigma-Aldrich; final concentration 0.1 mg/ml). Reaction progress was followed by quantitation of the fluorescent product resorufin generated from resazurin with excitation at 525 nm and emission at 590 nm using a ViewLux Microplate Imager. Plates were read every minute for 30 minutes. […] For the LOPAC^1280 library screen, column 1 was all components with DMSO (maximum signal) and column 3 was no GCK with DMSO (minimum signal). These two control columns were used for data normalization. The final HTS protocol is in Table S2, and the data have been deposited in PubChem (AID 743205).
as §1
The G6PDH-coupled kinetic assay system described in [24] was utilized as a basis for developing a high-throughput screening assay to detect G6P generation. Because NADPH (excitation 340 nm, emission 450 nm) has spectral overlap with many fluorescent small molecule compounds, NADPH generation by G6PDH was coupled to NADPH-dependent reduction of resazurin to the fluorescent resorufin (excitation 525 nm, emission 590 nm) catalyzed by diaphorase ( Figure 1B ). Initial assay validation was carried out over a range (0–20 nM) of GCK and GKRP concentrations ( Figure 4A ). Additionally, seven different control mixes of NADP^+ and NADPH were tested in duplicate to generate a standard curve. The total NADP^+/NADPH concentration was 0.15 mM for all controls, with 0, 5, 10, 30, 50, 70, or 100% NADPH. This allowed estimation of the amount of NADP^+ that had been converted by the GCK reaction throughout the time-course ( Figure 4A , dashed lines). The assay is sensitive to very low levels of conversion.
The reaction rate for both 10 nM GCK alone and for 10 nM GCK with 10 nM GKRP was linear for the entire 30-minute time-course. The combination of linearity and the relatively low percent conversion of NADP^+ led us to select t = 10 minutes as providing an appropriate signal window for all future analyses. […] The IC80 value for S6P was calculated as 1.5 µM. Accordingly, this S6P concentration was utilized for all remaining diaphorase-coupled experiments.

[3] = system: GCK and GKRP; design: method as in PMID 14627435; settings: enhancement of the interaction of GCK and GKRP; read-out: EC50, previously reported; cited from earlier work

Structure (SMILES) | IC50 [1] [nM] | LOPAC1280 screen outcome [2] | other results
O=C(O)C1=CC(=C(c2ccc(O)c(C(=O)O)c2)c2ccc(O)c(C(=O)O)c2)C=CC1=O [ATA, aurintricarboxylic acid] | 90 ± 30 | inhibitors of the GCK-GKRP interaction | –
O=C(COP(=O)(O)O)[C@@H](O)[C@H](O)[C@H](O)CO [F1P, fructose 1-phosphate] | – | – | EC50 ([2]; t = 10 minutes, mean ± SD): 4000 ± 500 nM
O=P(O)(O)OC[C@@H](O)[C@@H](O)[C@H](O)[C@@H](O)CO [S6P, sorbitol 6-phosphate] | – | – | EC50 [3]: ~500 nM; IC80 [2]: 1500 nM; IC50 ([2]; t = 10 minutes, mean ± SD): 400 ± 40 nM
Cc1ccc(C(=O)Nc2ccc(S(=O)(=O)O)c3cc(S(=O)(=O)O)cc(S(=O)(=O)O)c23)cc1NC(=O)c1cccc(NC(=O)Nc2cccc(C(=O)Nc3cc(C(=O)Nc4ccc(S(=O)(=O)O)c5cc(S(=O)(=O)O)cc(S(=O)(=O)O)c45)ccc3C)c2)c1 [suramin sodium salt] | 250 ± 70 | inhibitors of the GCK-GKRP interaction | –
